For 19 compounds, IC50, inhibition and Kd results are on record in patent publication EP3057950B1, “PHENYL LINKED QUINOLINYL MODULATORS OF ROR-GAMMA-T” (Janssen Pharmaceutica NV, priority 2013, dated 2015).

By IC50 is commonly meant the concentration that inhibits the measured activity by half. What is called inhibition is the change of the read-out against control, counted positive when it falls. A word on the Kd: it is the constant that tells how readily two partners part at equilibrium.

For test [1], the target named is T1, wild type human RORγt LBD (Homo sapiens, UniProt P51449).
T1 construct: expressed in transfected cells; host or cells: HEK293T
T1 sequence (P51449 269-508 limits assumed): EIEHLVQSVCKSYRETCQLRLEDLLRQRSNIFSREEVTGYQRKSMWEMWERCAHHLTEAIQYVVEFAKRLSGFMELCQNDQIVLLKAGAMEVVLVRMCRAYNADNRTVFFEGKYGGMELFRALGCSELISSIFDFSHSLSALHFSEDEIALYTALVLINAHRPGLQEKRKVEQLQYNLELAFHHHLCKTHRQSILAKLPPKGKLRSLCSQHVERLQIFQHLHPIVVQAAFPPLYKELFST
Briefly: RORγt Reporter Assay (GAL4-RORγt LBD luciferase in HEK293T cells). Conditions: HEK293T cells; for IC50: compounds for 24 hours, read-out: RORγt reporter Assay, IC50; for inhibition at 6 µM: HEK-293T, read-out: RORγt reporter Assay, % inhibition @ 6 µM, @ 6 µM. The test is classed as cell-based. An excerpt:
A reporter assay was used to test functional activity of RORγt modulatory compounds on transcriptional activation driven by the RORγt LBD. Cells used in the assay were co-transfected with two constructs. The first construct, pBIND-RORγt LBD, contained the wild type human RORγt LBD fused to the DNA binding domain of the GAL4 protein. The second construct, pGL4.31 (Promega Cat no. C935A), contained multiple GAL4 responsive DNA elements upstream of firefly luciferase. […] The mutant construct was called pBIND-RORγt-AF2.
The pBIND vector contains the GAL4 DNA Binding Domain (GAL4 DBD) and the renilla luciferase gene under control of the SV40 promoter. Renilla luciferase expression serves as a control for transfection efficiency and cell viability.
The reporter assay was performed by transiently transfecting HEK293T cells with 5 µg of pBIND-RORγt LBD or pBIND-RORγt LBD-AF2 and 5 µg pGL4.31 (Promega Cat no. C935A) using Fugene 6 (Invitrogen Cat no. E2691) at a 1:6 ratio of DNA: Fugene 6 in a T-75 flask in which cells were at least 80% confluent. Twenty four hours after bulk transfection, cells were plated into 96-well plates at 50,000 cells/well in phenol-red free DMEM containing 5% Lipid Reduced FCS and Pen/Strep. Six hours after plating, cells were treated with compounds for 24 hours. Media was removed and cells were lysed with 50 µL 1x Glo Lysis Buffer (Promega). Dual Glo Luciferase Reagent (50 µL/well) was then added and firefly luciferase luminescence was read on an Envision after a ten minute incubation. Finally, Stop and Glo reagent (50 µL/well) was added and renilla luciferase luminescence was read on an Envision instrument after a ten minute incubation. To calculate the effect of compounds on RORγt activity, the ratio of firefly to renilla luciferase was determined and plotted against compound concentration. Agonist compounds increase RORγt-driven luciferase expression, and antagonist or inverse agonist compounds decrease luciferase expression.
(In general: A reporter such as luciferase makes a cellular process visible.)

Test [2] has as its target T2, wild type human RORγt ligand binding domain (RORγt LBD) (Homo sapiens, UniProt P51449).
T2 construct: His-tag (N); TurboTEV protease cleavage site (ENLYFQG) (N); made in house; host or cells: E. coli (pHIS1, modified pET expression vector)
T2 sequence (P51449 269-508 limits assumed): T1 sequence (P51449 269-508 limits assumed)
The test is described as follows: RORγt ThermoFluor® Assay (thermal shift, binding affinity). Conditions: pH 7.0, estimated from concentration response curves. The protocol:
This approach is applicable to a wide variety of systems, and rigorous in theoretical interpretation through quantitation of equilibrium binding constants (KD).
The shift in the melting point described as a ΔTm is proportional to the concentration and affinity of the ligand.
Protein and compound solutions are dispensed into black 384-well polypropylene PCR microplates (Abgene) and overlayed with silicone oil (1 µL, Fluka, type DC 200) to prevent evaporation.
Bar-coded assay plates are robotically loaded onto a thermostatically controlled PCR-type thermal block and then heated at a typical ramp-rate of 1 °C/min for all experiments. Fluorescence was measured by continuous illumination with UV light (Hamamatsu LC6) supplied via fiber optic and filtered through a band-pass filter (380-400 nm; >6 OD cutoff). Fluorescence emission of the entire 384-well plate was detected by measuring light intensity using a CCD camera (Sensys, Roper Scientific) filtered to detect 500 ± 25 nm, resulting in simultaneous and independent readings of all 384 wells. Images were collected at each temperature, and the sum of the pixel intensity in a given area of the assay plate was recorded versus temperature. Reference wells contained RORγt without compounds, and the assay conditions were as follows: • 0.065 mg/mL RORγt • 60 µM 1,8-ANS • 100 mM Hepes, pH 7.0 • 10 mM NaCl • 2.5 mM GSH • 0.002% Tween-20
Project compounds were arranged in a pre-dosed mother plate (Greiner Bio-one) wherein compounds are serially diluted in 100% DMSO by 1:2 from a high concentration of 10 mM over 12 columns within a series (column 12 is a reference well containing DMSO, no compound). The compounds were robotically dispensed directly into assay plates (1x = 46 nL) using a Hummingbird capillary liquid handling instrument (Digilab). Following compound dispense, protein and dye in buffer was added to achieve the final assay volume of 3 µL, followed by 1 µL of silicone oil.

Where a name gives a salt, the structure may show the parent alone.

As for `Cn1cncc1C(O)(c1ccc(Cl)cc1)c1ccc2nc(OCC(F)(F)F)c(-c3ccccc3)c(Cl)c2c1` (centres unmarked) [Example 45, (4-Chlorophenyl)[4-chloro-3-phenyl-2-(2,2,2-trifluoroethoxy)quinolin-6-yl](1-methyl-1H-imidazol-5-yl)methanol•TFA], in test [1], the IC50 stood at 570 nM and the inhibition at 6 µM came out at 93%. For the same compound, the Kd in test [2] was 770 nM.
On to `CN1CCC(C(O)(c2cccnc2)c2ccc3nc(Cl)c(-c4ccccc4)c(Cl)c3c2)CC1` (centres unmarked) [Example 78, (2,4-Dichloro-3-phenylquinolin-6-yl)(1-methylpiperidin4-yl)(pyridin-3-yl)methanol•TFA], for which, in test [1], the IC50 is above 6000 nM and the inhibition at 6 µM is 33%. Further, in test [2], the Kd was 14000 nM.
For `OC(c1cccnc1)(c1ccc2nc(Cl)c(-c3ccccc3)c(Cl)c2c1)C1CCNCC1` (centres unmarked) [Example 91, (2,4-Dichloro-3-phenylquinolin-6-yl)(piperidin-4-yl)(pyridin-3-yl)methanol•TFA] the same measures were above 6000 nM, 0% and 21000 nM.
As for `CN(C)c1c(-c2ccccc2)c(Cl)nc2ccc(C(O)(c3ccccn3)c3cncn3C)cc12` (centres unmarked) [Example 85, (2-Chloro-4-(dimethylamino)-3-phenylquinolin-6-yl)(1-methyl-1H-imidazol-5-yl)(pyridin-2-yl)methanol•TFA], in test [1], the IC50 is 3500 nM and the inhibition at 6 µM came out at 81%. In addition, the Kd in test [2] is 20000 nM.
For the compound `CC(=O)N1CCC(C(O)(c2cccnc2)c2ccc3nc(C(F)(F)F)c(-c4ccccc4)c(Cl)c3c2)CC1` (centres unmarked) [Example 29, 1-(4-((4-Chloro-3-phenyl-2-(trifluoromethyl)quinolin-6-yl)(hydroxy)(pyridin-3-yl)methyl)piperidin-1-yl)ethanone•TFA], in test [1], the IC50 was 85 nM and the inhibition at 6 µM was 97%. Also, the Kd in test [2] is 26 nM.
In the case of `OC(c1ccccc1)(c1ccc2nc(Cl)c(-c3ccccc3Cl)c(Cl)c2c1)c1ncco1` (centres unmarked) [Example 74, (2,4-Dichloro-3-(2-chlorophenyl)quinolin-6-yl)(oxazol-2-yl)(phenyl)methanol], in test [1], the IC50 was above 6000 nM and the inhibition at 6 µM worked out at 60%. Besides, the Kd in test [2] was 11000 nM.
For `Cn1cncc1C(O)(c1ccc(Cl)cc1)c1ccc2nc(Cl)c(-c3cccnc3)c(Cl)c2c1` (centres unmarked) [Example 6, (4-Chlorophenyl)(2,4-dichloro-3-(pyridin-3-yl)quinolin-6-yl)(0-methyl-1H-imidazol-5-yl)methanol•TFA] the same measures were 1900 nM, 92% and 940 nM.
`COc1nc2ccc(C(O)(c3ncccn3)c3cncn3C)cc2c(Cl)c1-c1ccccc1` (single isomer, unassigned) [Example 60b, (4-Chloro-2-methoxy-3-phenylquinolin-6-yl)(1-methyl-1H-imidazol-5-yl)pyrimidin-2-ylmethanol]: in test [1], the IC50 is around 2000 nM and the inhibition at 6 µM came to 87%. Besides, in test [2], the Kd was 900 nM.
The corresponding values for `COc1c(-c2ccccc2)c(Cl)nc2ccc(C(O)(c3sc(C)nc3C)c3cncn3C)cc12` (centres unmarked) [Example 38, (2-Chloro-4-methoxy-3-phenylquinolin-6-yl)(2,4-dimethylthiazol-5-yl)(1-methyl-1H-imidazol-5-yl)methanol•TFA] are 30 nM, 93% and 0.26 nM.
In the case of `Cc1ncc(C(O)(c2ccc3nc(Cl)c(-c4ccccc4)c(Cl)c3c2)c2cnnn2C)n1C` (centres unmarked) [Example 39, (2,4-Dichloro-3-phenylquinolin-6-yl)(1,2-dhnethyl-1H-imidazol-5-yl)(1-methyl-1H-1,2,3-triazol-5-yl)methanol], in test [1], the IC50 is 34 nM and the inhibition at 6 µM was 103%. Besides, the Kd in test [2] was 5.2 nM.
The corresponding values for `COCCOc1nc2ccc(C(O)(c3ccc(Cl)cc3)c3cncn3C)cc2c(Cl)c1-c1ccccc1` (centres unmarked) [Example 48, [4-Chloro-2-(2-methoxyethoxy)-3-phenylquinolin-6-yl](4-chlorophenyl)(1-methyl-1H-imidazol-5-yl)methanol] are 670 nM, 103% and 810 nM.
For the compound `COc1nc2ccc(C(O)(c3sc(C)nc3C)c3cncn3C)cc2c(Cl)c1-c1ccccc1` (centres unmarked) [Example 37, (4-Chloro-2-methoxy-3-phenylquinolin-6-yl)(2,4-dimethylthiazol-5-yl)(1-methyl-1H-imidazol-5-yl)methanol•TFA], in test [1], the half-inhibitory concentration (IC50) was 260 nM and the inhibition at 6 µM is 90%. In addition, the Kd in test [2] was 7.2 nM.
For `CN(C)c1nc2ccc(C(c3ccc(Cl)cc3)c3cncn3C)cc2c(Cl)c1-c1ccccc1` (centres unmarked) [Example 71, 4-Chloro-6-((4-chlorophenyl)(1-methyl-1H-imidazol-5-yl)methyl)-N,N-dimethyl-3-phenylquinolin-2-amine] the same measures were 1400 nM, 84% and 2200 nM.
For `Cc1nc(C)c(C(O)(c2ccc3nc(C#N)c(-c4ccccc4)c(C#N)c3c2)c2cnnn2C)s1` (centres unmarked) [Example 47a, 6-((2,4-Dimethylthiazol-5-yl)(hydroxy)(1-methyl-1H-1,2,3-triazol-5-yl)methyl)-3-phenylquinoline-2,4-dicarbonitrile] the same measures were 40 nM, 98% and 8.3 nM.
For `COc1c(-c2ccccc2)c(Cl)nc2ccc(C(O)(c3cnnn3C)c3cnc(C)n3C)cc12` (single isomer, unassigned) [Example 40b, (2-Chloro-4-metboxy-3-phenylquinolin-6-yl)(1,2-dimethyl-1H-imidazol-5-yl)(1-methyl-1H-1,2,3-triazol-5-yl)methanol], the inhibition at 6 µM in test [1] was 97%.
On to `CC(C)Oc1nc2ccc(C(O)(c3cccnc3)c3cccc(Cl)c3)cc2cc1-c1ccccc1` (centres unmarked) [Example 79, (3-Chlorophenyl)(2-isopropoxy-3-phenylquinolin-6-yl)(pyridin-3-yl)methanol•TFA], for which, in test [2], the Kd is 17000 nM.
For the compound `COCCN(C)c1nc2ccc(C(O)(c3ccc(C(F)(F)F)nc3)c3cncn3C)cc2c(Cl)c1-c1ccccc1` (centres unmarked) [Example 53, {4-Chloro-2-[(2-methoxyethyl)(methyl)amino]-3-phenylquinolin-6-yl}(1-methyl-1H-imidazol-5-yl)[6-(trifluoromethyl)pyridin-3-yl]methanol], the Kd in test [2] was 7.2 nM.
Same read-out and setting: as for `CCOc1nc2ccc(C(O)(c3cccnc3)c3cccc(Cl)c3)cc2c(OCC)c1-c1ccccc1` (centres unmarked) [Example 81, (3-Chlorophenyl)(2,4-diethoxy-3-phenylquinolin-6-yl)(pyridin-3-yl)methanol•TFA], the figure is 14000 nM.
For `CON(C)c1nc2ccc(C(O)(c3ccc(Cl)cc3)c3cncn3C)cc2c(N(C)OC)c1-c1ccccc1` (centres unmarked) [Example 59, {2,4-Bis[methoxy(methyl)amino]-3-phenylquinolin-6-yl}(4-chlorophenyl)(1-methyl-1H-imidazol-5-yl)methanol], in test [1], the inhibition at 6 µM is 98%.
